# Experiments:
# [1] = biological target: His-AKT (Full Length) (Homo sapiens (Human), UniProt P31749); assay: AKT enzyme assay; type: biochemical; details: 160 uM ATP, 90 min at 25° C.
# Description: A TTP Mosquito liquid handling instrument was used to place 125 nl of the appropriate concentration of inhibitor in 100% DMSO (for a dose response curve calculation) into each well of a 384-well plate. To this reaction components were added to a final volume of 12.5 μl: • 0.1 ng/μl His-AKT (Full Length), (Invitrogen, Part # P2999, Lot #641228C). • 160 uM ATP (Fluka, 02055) • 1 mM DTT (Sigma, D0632) • 1 mM MgCl2 (Sigma, M1028) • 1 μM substrate peptide (sequence FITC-AHA-GRPRTSSFAEG-NH2), • synthesized by Tufts Peptide Synthesis service. • 100 mM HEPES pH 7.5 (Calbiochem, 391338) • 0.015% Brij-35 (Sigma, B4184)
# The reaction was incubated for 90 min at 25° C., and then stopped by the addition of 70 μl of Stop buffer (100 mM HEPES pH 7.5, 0.015% Brij-35, 10 mM EDTA (Sigma, E7889)).
# The plate was read on a Caliper LC 3000 in an Off-Chip mobility shift assay format, using the following parameters for a 12-sipper chip: screening pressure −2.3 psi, upstream voltage −500, and downstream voltage −3000. These conditions caused unphosphorylated substrate and phosphorylated product peptide to resolve as separate peaks allowing direct measurement of percentage of conversion of substrate to product. The percent conversion was plotted against concentration of inhibitor to produce a sigmoidal dose response curve, from which an IC50 was calculated.
# [2] = biological target: P70S6K (T412E mutant, Millipore) (Homo sapiens (Human), UniProt P23443, T412E); assay: P70S6K enzyme assay; type: biochemical; details: 24 μM ATP, 90 min at 25° C.
# Chain of P70S6K (T412E mutant, Millipore) (P23443 whole entry T412E): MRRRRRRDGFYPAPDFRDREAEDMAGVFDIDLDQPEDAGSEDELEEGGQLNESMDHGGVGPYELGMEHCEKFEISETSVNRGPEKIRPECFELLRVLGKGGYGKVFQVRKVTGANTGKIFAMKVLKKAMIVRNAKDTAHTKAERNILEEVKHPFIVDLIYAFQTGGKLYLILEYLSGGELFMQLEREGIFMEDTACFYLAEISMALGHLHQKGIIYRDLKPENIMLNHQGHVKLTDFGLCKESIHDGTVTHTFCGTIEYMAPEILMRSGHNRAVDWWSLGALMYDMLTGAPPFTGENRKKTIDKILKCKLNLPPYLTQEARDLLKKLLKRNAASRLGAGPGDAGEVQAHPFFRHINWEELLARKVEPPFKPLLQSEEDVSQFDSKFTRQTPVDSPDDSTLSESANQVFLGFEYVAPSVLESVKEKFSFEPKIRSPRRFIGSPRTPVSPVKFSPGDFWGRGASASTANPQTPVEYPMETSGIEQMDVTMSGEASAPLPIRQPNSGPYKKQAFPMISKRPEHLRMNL
# Description: P70S6K inhibitor compounds were diluted and plated in 96 well plates. A reaction mixture including the following components was then added to the compound plate to initiate the enzyme reaction; P70S6K (3 nM, T412E mutant, Millipore) was mixed with 24 μM ATP in an assay buffer containing 100 mM Hepes (pH 7.5), 5 mM MgCl2, 1 mM DTT, 0.015% Brij and 1 μM of the substrate peptide FITC-AHA-AKRRRLSSLRA-OH (derived from the S6 ribosomal protein sequence, FITC=fluorescein isothiocyanate, AHA=6-aminohexanoic acid). The reaction was incubated for 90 min at 25° C., before the addition of 10 mM EDTA to stop the reaction. The proportion of substrate and product (phosphorylated) peptide was analysed on a Caliper Life Sciences Lab Chip 3000, using a pressure of −1.4 psi, and upstream and downstream voltages of −3000 and −700 respectively. Product peaks were resolved before substrate peaks on the resulting chromatograms.
# Chain of His-AKT (Full Length) (P31749 whole entry): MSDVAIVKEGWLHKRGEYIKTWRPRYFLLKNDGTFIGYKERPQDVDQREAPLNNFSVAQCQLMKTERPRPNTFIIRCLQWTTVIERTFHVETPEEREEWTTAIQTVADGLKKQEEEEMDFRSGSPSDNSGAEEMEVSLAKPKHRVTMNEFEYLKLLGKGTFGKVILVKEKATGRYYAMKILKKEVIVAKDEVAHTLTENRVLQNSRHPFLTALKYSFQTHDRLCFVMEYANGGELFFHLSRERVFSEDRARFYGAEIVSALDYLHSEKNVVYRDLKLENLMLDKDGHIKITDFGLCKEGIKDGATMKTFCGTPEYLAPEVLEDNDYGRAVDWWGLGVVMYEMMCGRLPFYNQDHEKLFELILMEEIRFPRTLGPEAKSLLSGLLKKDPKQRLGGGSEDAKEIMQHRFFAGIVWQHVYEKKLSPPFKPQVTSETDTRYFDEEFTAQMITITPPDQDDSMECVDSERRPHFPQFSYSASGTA
Compound,IC50 [1],IC50 [2]
"NCC(c1ccc(C(F)(F)F)cc1)C1CCN(c2ccnc3c2CCCN3)CC1 (stereo not drawn) [Compound A1, 2-(1-(5,6,7,8-tetrahydro-1,8-naphthyridin-4-yl)piperidin-4-yl)-2-(4-(trifluoromethyl)phenyl)ethanamine]",101 to 500 nM,25 to 100 nM
"NCC(c1ccc(C(F)(F)F)cc1)C1CCN(c2ccnc3c2CCN3)CC1 (stereo not drawn) [Compound A2, 2-(1-(2,3-dihydro-1H-pyrrolo[2,3-b]pyridin-4-yl)piperidin-4-yl)-2-(4-(trifluoro-methyl)phenyl)ethanamine]",25 to 100 nM,25 to 100 nM
"NCC(c1ccc(C(F)(F)F)cc1)C1CCN(c2ccnc3c2CCC3)CC1 (stereo not drawn) [Compound A3, 2-(1-(6,7-dihydro-5H-cyclopenta[b]pyridin-4-yl)piperidin-4-yl)-2-(4-(trifluoromethyl)phenyl)ethanamine]",> 1000 nM,> 1000 nM
"CN(C)CC(c1ccc(Cl)cc1)N1CCN(c2ncnc3c2OCCN3)CC1 (stereo not drawn) [Compound A4, {2-(4-Chlorophenyl)-2-[4-(7,8-dihydro-6H-pyrimido[5,4-b][1,4]oxazin-4-yl)-piperazin-1-yl]-ethyl}-dimethylamine]",101 to 500 nM,> 1000 nM
"CN(C)CC(c1ccc(C(F)(F)F)cc1)N1CCN(c2ncnc3c2OCCN3)CC1 (stereo not drawn) [Compound A5, [2-[4-(7,8-Dihydro-6H-pyrimido[5,4-b][1,4]oxazin-4-yl)-piperazin-1-yl]-2-(4-trifluoromethylphenyl)-ethyl]-dimethylamine]",101 to 500 nM,> 1000 nM
"CN(C)CC(c1ccc(C(F)(F)F)cc1)N1CCN(c2ncnc3c2CCN3)CC1 (stereo not drawn) [Compound A6, [2-[4-(6,7-Dihydro-5H-pyrrolo[2,3-d]pyrimidin-4-yl)-piperazin-1-yl]-2-(4-trifluoromethylphenyl)-ethyl]-dimethylamine]",101 to 500 nM,101 to 500 nM
"CN(C)CC(c1ccc(Cl)cc1)N1CCN(c2ncnc3c2CCN3)CC1 (stereo not drawn) [Compound A7, {2-(4-Chlorophenyl)-2-[4-(6,7-dihydro-5H-pyrrolo[2,3-d]pyrimidin-4-yl)-piperazin-1-yl]-ethyl}-dimethylamine]",101 to 500 nM,101 to 500 nM
"CN(C)CC(c1ccc(Cl)cc1)N1CCN(c2ncnc3c2CCCN3)CC1 (stereo not drawn) [Compound A8, {2-(4-Chlorophenyl)-2-[4-(5,6,7,8-tetrahydro-pyrido[2,3-d]pyrimidin-4-yl)-piperazin-1-yl]-ethyl}-dimethylamine]",25 to 100 nM,101 to 500 nM
"CN(C)CC(c1ccc(C(F)(F)F)cc1)N1CCN(c2ncnc3c2CCCN3)CC1 (stereo not drawn) [Compound A9, Dimethyl-[2-[4-(5,6,7,8-tetrahydro-pyrido[2,3-d]pyrimidin-4-yl)-piperazin-1-yl]-2-(4-trifluoromethyl-phenyl)-ethyl]-amine]",25 to 100 nM,25 to 100 nM
"NCC(c1ccc(C(F)(F)F)cc1)N1CCN(c2ncnc3c2OCCN3)CC1 (stereo not drawn) [Compound A10, 2-[4-(7,8-Dihydro-6H-pyrimido[5,4-b][1,4]oxazin-4-yl)-piperazin-1-yl]-2-(4-trifluoromethylphenyl)-ethylamine]",101 to 500 nM,501 to 1000 nM
"NCC(c1ccc(Cl)cc1)N1CCN(c2ncnc3c2OCCN3)CC1 (stereo not drawn) [Compound A11, 2-(4-Chlorophenyl)-2-[4-(7,8-dihydro-6H-pyrimido[5,4-b][1,4]oxazin-4-yl)-piperazin-1-yl]-ethylamine]",101 to 500 nM,501 to 1000 nM
"CN(C)CC(c1ccc(C(F)(F)F)c(F)c1)N1CCN(c2ncnc3c2OCCN3)CC1 (stereo not drawn) [Compound A12, [2-[4-(7,8-Dihydro-6H-pyrimido[5,4-b][1,4]oxazin-4-yl)-piperazin-1-yl]-2-(3-fluoro-4-trifluoromethylphenyl)-ethyl]-dimethylamine]",101 to 500 nM,501 to 1000 nM
"NCC(c1ccc(Cl)cc1)N1CCN(c2ncnc3c2CCN3)CC1 (stereo not drawn) [Compound A13, 2-(4-Chloro-phenyl)-2-[4-(6,7-dihydro-5H-pyrrolo[2,3-d]pyrimidin-4-yl)-piperazin-1-yl]-ethylamine]",101 to 500 nM,25 to 100 nM
"NCC(c1ccc(F)cc1)N1CCN(c2ncnc3c2CCN3)CC1 (stereo not drawn) [Compound A14, 2-[4-(6,7-Dihydro-5H-pyrrolo[2,3-d]pyrimidin-4-yl)-piperazin-1-yl]-2-(4-fluorophenyl)-ethylamine]",501 to 1000 nM,501 to 1000 nM
"CN(C)CC(c1ccc(Cl)c(F)c1)N1CCN(c2ncnc3c2CCN3)CC1 (stereo not drawn) [Compound A15, {2-(4-Chloro-3-fluoro-phenyl)-2-[4-(6,7-dihydro-5H-pyrrolo[2,3-d]pyrimidin-4-yl)-piperazin-1-yl]ethyl}-dimethylamine]",101 to 500 nM,101 to 500 nM
"NCC(c1ccc(C(F)(F)F)cc1)N1CCN(c2ncnc3c2CCCN3)CC1 (stereo not drawn) [Compound A16, 2-[4-(5,6,7,8-Tetrahydro-pyrido[2,3-d]pyrimidin-4-yl)-piperazin-1-yl]-2-(4-trifluoromethyl-phenyl)-ethylamine]",25 to 100 nM,25 to 100 nM
"NCC(c1ccc(Cl)cc1)N1CCN(c2ncnc3c2CCCN3)CC1 (stereo not drawn) [Compound A17, 2-(4-Chloro-phenyl)-2-[4-(5,6,7,8-tetrahydro-pyrido[2,3-d]pyrimidin-4-yl)-piperazin-1-yl]-ethylamine]",25 to 100 nM,101 to 500 nM
"CN(C)CC(c1ccc(Cl)c(F)c1)N1CCN(c2ncnc3c2CCCN3)CC1 (stereo not drawn) [Compound A18, {2-(4-Chloro-3-fluoro-phenyl)-2-[4-(5,6,7,8-tetrahydro-pyrido[2,3-d]pyrimidin-4-yl)-piperazin-1-yl]-ethyl}-dimethylamine]",25 to 100 nM,101 to 500 nM
"CN(C)CC(c1ccc(C(F)(F)F)c(F)c1)N1CCN(c2ncnc3c2CCCN3)CC1 (stereo not drawn) [Compound A19, {2-(3-Fluoro-4-trifluoromethyl-phenyl)-2-[4-(5,6,7,8-tetrahydro-pyrido[2,3-d]pyrimidin-4-yl)-piperazin-1-yl]-ethyl}-dimethylamine]",25 to 100 nM,25 to 100 nM
"CN(C)CC(c1ccc(C(F)(F)F)c(F)c1)N1CCN(c2ncnc3c2CCN3)CC1 (stereo not drawn) [Compound A20, [2-[4-(6,7-Dihydro-5H-pyrrolo[2,3-d]pyrimidin-4-yl)-piperazin-1-yl]-2-(3-fluoro-4-trifluoromethyl-phenyl)-ethyl]-dimethylamine]",25 to 100 nM,101 to 500 nM
"NCC(c1ccc(F)cc1)N1CCN(c2ncnc3c2CCCN3)CC1 (stereo not drawn) [Compound A21, 2-(4-Fluoro-phenyl)-2-[4-(5,6,7,8-tetrahydro-pyrido[2,3-d]pyrimidin-4-yl)-piperazin-1-yl]-ethylamine]",501 to 1000 nM,> 1000 nM
"NCC(c1ccc(C(F)(F)F)cc1)C1CCN(c2ncnc3c2CCCN3)CC1 (stereo not drawn) [Compound A22, 2-[1-(5,6,7,8-Tetrahydro-pyrido[2,3-d]pyrimidin-4-yl)-piperidin-4-yl]-2-(4-trifluoromethyl-phenyl)-ethylamine]",25 to 100 nM,101 to 500 nM
"NCC(c1ccc(C(F)(F)F)cc1)C1CCN(c2ncnc3c2OCCN3)CC1 (stereo not drawn) [Compound A23, 2-[1-(7,8-Dihydro-6H-pyrimido[5,4-b][1,4]oxazin-4-yl)-piperidin-4-yl]-2-(4-trifluoromethyl-phenyl)-ethylamine]",> 1000 nM,> 1000 nM
"CN(C)CC(c1ccc(F)cc1)N1CCN(c2ncnc3c2NC(=O)CN3)CC1 (stereo not drawn) [Compound A24, 4-{4-[2-dimethylamino-1-(4-fluoro-phenyl)-ethyl]-piperazin-1-yl}-7,8-dihydro-5H-pteridin-6-one]",> 1000 nM,> 1000 nM
"CN(C)CC(c1cccc(F)c1)N1CCN(c2ncnc3c2NC(=O)CN3)CC1 (stereo not drawn) [Compound A25, 4-{4-[2-dimethylamino-1-(3-fluoro-phenyl)-ethyl]-piperazin-1-yl}-7,8-dihydro-5H-pteridin-6-one]",> 1000 nM,> 1000 nM
"CN(C)CC(c1ccc(Cl)cc1)N1CCN(c2ncnc3c2NC(=O)CN3)CC1 (stereo not drawn) [Compound A26, 4-{4-[2-dimethylamino-1-(4-chloro-phenyl)-ethyl]-piperazin-1-yl}-7,8-dihydro-5H-pteridin-6-one]",101 to 500 nM,501 to 1000 nM
"CN(C)CC(c1cccc(Cl)c1)N1CCN(c2ncnc3c2NC(=O)CN3)CC1 (stereo not drawn) [Compound A27, 4-{4-[2-dimethylamino-1-(3-chloro-phenyl)-ethyl]-piperazin-1-yl}-7,8-dihydro-5H-pteridin-6-one]",> 1000 nM,> 1000 nM

# Reference: patent US10287300B2 (Merck Patent GmbH, priority 2012, dated 2019)
